What all share (assay): NCI-60 cell line screen, 48 h
The subject of experiment [1] is BT-549 breast.
Experiment [2] concerns CCRF-CEM leukemia.
The subject of experiment [3] is M14 melanoma.
The subject of experiment [4] is MALME-3M melanoma.
For experiment [5], the system named is MDA-MB-435.
Experiment [6] deals with NCI-H522 lung.
The test system of experiment [7] is TK-10 renal.
Experiment [8] relates to U251 CNS.
Experiment [9] relates to UACC-257 melanoma.
Experiment [10] concerns UO-31 renal.

Where “and” joins values, the source holds several entries; their conditions need not be identical. Equal values may be shown once.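 Protocol summary: plate cells (96-well), add compound at 5 concentrations, incubate 48 h, interpolate endpoints linearly. GI50 is the concentration that inhibits growth by half. TGI: total growth inhibition.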 A value given as a limit tells only on which side of the number the result lay.

In the case of `CC(C)[NH-].CC(C)[NH-].O.O.[Cl][Pt+2][Cl]`, the GI50 in [1] was 56 µM; in [2] it was 6.59 µM; in experiment [3] it was 37.5 µM; in experiment [4], 19.4 µM; in experiment [5] it was 26 µM; in experiment [6], 20.4 µM. The GI50 in experiment [7] is 190 µM; in [8], 27.3 µM; in [9], 87.4 µM; in experiment [10] it was 147 µM. Also, the TGI worked out at 266 µM in experiment [1]; 97.7 µM in experiment [2]; 139 µM in experiment [3]; 57.8 µM in experiment [4]; 76.2 µM in experiment [5]; 74.2 µM in experiment [6]. Besides, the TGI in experiment [7] was 467 µM; in [8] it was 107 µM; in experiment [9] it was 279 µM; in experiment [10], 356 µM.
Turning to `CCn1c2ccc(C(=O)CCCN(C)C)cc2c2cc(C(=O)CCCN(C)C)ccc21`, the TGI in [1] was 12.4 µM; in [2], 10.1 µM; in experiment [3] it was 5.1 µM; in experiment [4] it was 11 µM; in experiment [5], 2.82 µM; in experiment [6], 8.68 µM. The TGI in [7] turned out to be 13.2 µM; in experiment [8] it was 8.46 µM; in experiment [9] it was 14 µM; in experiment [10] it was 12.8 µM.
On to `O=C(NCCCCCCNC(=O)n1cc(F)c(=O)[nH]c1=O)NCCCOCCOCCOCCOCCOCCOCCOCCOCCOCCOCCOCCOCCOCCOCCOCCOCCOCCOCCOCCOCCOCCCNC(=O)C(O)C(O)C(OC1OC(CO)C(O)C(O)C1O)C(O)CO` (stereo not drawn), for which the TGI in [1], in [2], in experiment [3], in experiment [4], in [5] and in [6] was over 100 µM throughout. For the same compound, the TGI in [7], in experiment [8], in experiment [9] and in experiment [10] was over 100 µM each time.
With `CCOC(=O)NC1=C(N2CC2)C(=O)C(NC(=O)OCC)=C(N2CC2)C1=O`, the TGI in experiment [1] is 25 µM; in experiment [2], 9.8 µM and 16.1 µM and 12.1 µM; in [3], 25 µM and 23.7 µM and 31.7 µM; in experiment [4], 18 µM and 18.3 µM and 15.6 µM; in [5], 7.28 µM; in experiment [6] it was 17.5 µM and 9.09 µM and 9.12 µM. Moreover, the TGI was > 25 µM and 65.1 µM in experiment [7]; 20 µM and 10.8 µM and 9.77 µM in experiment [8]; 25 µM and 19.9 µM in experiment [9]; 25 µM and 21.7 µM and 22.4 µM in [10]. Moreover, the GI50 in experiment [2] was 3.47 µM and 1.88 µM; in experiment [3] it was 4.91 µM and 4.5 µM; in experiment [4], 5.79 µM; in experiment [6], 5.95 µM and 4.17 µM; in [7] it was over 25 µM; in [8] it was 3.91 µM. In addition, the GI50 is 6.96 µM in experiment [9]; 11.1 µM and 4 µM in experiment [10].
In the case of `CN1C(=O)C(=Cc2cn(Cc3ccccc3)c3ccccc23)C(=O)N(C)C1=O`, the GI50 in experiment [1] was 56.5 µM; in experiment [2], over 77.6 µM; in experiment [3], 48.7 µM; in [4] it was 42.1 µM; in experiment [5] it was over 83.3 µM; in [6], over 100 µM. Also, the GI50 in [7] was 4.28 µM; in experiment [8], 18.2 µM; in [9] it was 9.82 µM; in experiment [10], over 38.8 µM. In addition, the TGI in experiment [1], in experiment [2], in experiment [3], in [4], in experiment [5] and in experiment [6] was over 100 µM each time. In addition, the TGI was 56.5 µM in experiment [7], over 71.3 µM in experiment [8], over 100 µM in experiment [9] and over 81.4 µM in [10].
On to `COc1ccc([I+]c2ccccc2)cc1`, for which the GI50 in experiment [1] was 4.12 µM; in [2], 2.86 µM; in experiment [3], 9.09 µM; in experiment [4] it was 7.8 µM; in experiment [5], 10.1 µM; in experiment [6] it was 24.5 µM. Moreover, the GI50 in [7] is 17.4 µM; in experiment [8], 7.94 µM; in [9] it was 8.81 µM; in experiment [10] it was 26.8 µM. The TGI in experiment [1] was over 78.8 µM; in [2] it was over 100 µM; in experiment [3] it was over 100 µM; in [4], over 100 µM; in experiment [5] it was over 100 µM; in experiment [6], over 100 µM. Also, the TGI in experiment [7], in experiment [8], in experiment [9] and in [10] was over 100 µM in each case.
With `O=C(NCCN1CCC(O)CC1)c1cc2c(o1)C(=O)c1ccccc1C2=O`, the GI50 in experiment [1] is 0.17 µM; in experiment [2], 0.578 µM; in experiment [3], 0.123 µM; in experiment [4], 0.0272 µM; in experiment [5], 0.177 µM; in [6], 0.284 µM. Further, the GI50 in experiment [7] is 2 µM; in [8] it was 0.335 µM; in experiment [9], 0.176 µM; in experiment [10] it was 0.666 µM. Further, the TGI in [1] was 0.326 µM; in [2], over 30.1 µM; in experiment [3] it was 0.268 µM; in [4], 0.0885 µM; in [5], 0.324 µM; in [6] it was 1.09 µM. The TGI in [7] is 3.59 µM; in experiment [8], 1.14 µM; in [9], 0.391 µM; in experiment [10], 1.84 µM.
As to `Oc1ccc2ccccc2c1C1NN=C(c2ccccc2)S1` (stereo not drawn), the GI50 is 0.858 µM in experiment [1]; 0.359 µM in [2]; 0.279 µM in [3]; 1.56 µM in experiment [4]; 0.632 µM in experiment [5]; 0.307 µM in experiment [6]. Besides, the GI50 in experiment [7] was 0.559 µM; in experiment [8] it was 0.461 µM; in experiment [9], 0.561 µM; in experiment [10] it was 0.409 µM. Besides, the TGI was 28.9 µM in [1]; over 100 µM in [2]; 0.819 µM in experiment [3]; 21 µM in [4]; 42.4 µM in experiment [5]; 13.5 µM in [6]. For the same compound, the TGI in experiment [7] was 38.2 µM; in experiment [8] it was 48.5 µM; in experiment [9] it was 12 µM; in [10], over 20.4 µM.
